Data set [1] can be described thus: Liver microsome stability test, mouse. The data set is classed as in vitro ADME. As to conditions: mouse liver microsomes, 0.5 mg protein/mL; read-out: mouse T1/2. The method, then:
(§1) To test the metabolic stability of the test article in mice, rats and human liver microsomes.
(§2) 1. 10 μL of the test or control article working solution was added to all plates (T0, T5, T10, T20, T30, T60, NCF60).
(§3) 2. Liver microsome solution was dispensed into a 96-well plate at 680 μL/well, and addition was performed on each plate at 80 μL/well, and the above-mentioned incubation plate was placed at 37° C. for pre-incubation for about 10 minutes.
(§4) 4. After the pre-incubation, the NADPH regeneration system working solution was dispensed into the 96-well plate at 90 μL/well, and addition was performed on each plate at 10 μL/well to start the reaction.
(§5) 5. Incubation was performed for an appropriate time (e.g., 5, 10, 20, 30 and 60 minutes).
(§6) 6. 300 μL of the stopping solution (refrigerated at 4° C., containing 100 ng/mL of tolbutamide and 100 ng/mL of labetalol) was respectively added to each sample well.
(§7) T1/2 and Clint(mic) were calculated by the following formula.
(§8) Ct is the concentration at time t, with t being the incubation time; C0 is the concentration at 0; Ke is the elimination rate constant; Clint(mic) is the intrinsic clearance rate of liver microsomes; and Clint(liver) is the hepatic intrinsic clearance rate. CLint(mic)=0.693/half-life/mg microsomal protein per mL (microsome concentration during incubation) CLint(liver)=CLint(mic)×mg microsomal protein/g liver weight×ratio of liver weight to body weight
(Liver microsomes are vesicles of endoplasmic reticulum, rich in cytochrome P450 enzymes.)

Data set [2] can be described thus: Liver microsome stability test, human. The data set is classed as in vitro ADME. The following applies: human liver microsomes, 0.5 mg protein/mL; read-out: Human T1/2. The method, then: as §1, §2, §3, §4, §5, §6, §7, §8
Data set [3] is described as follows: Liver microsome stability test, rat. As to conditions: rat liver microsomes, 0.5 mg protein/mL; read-out: rat T1/2. The data set is classed as in vitro ADME. The method, then:
as §1, §2, §3, §4, §5, §6, §7, §8

Data set [4] concerns NCI-H358 human non-small cell lung cancer cells with KRAS G12C mutation. Kind of data set: Cell experiment: anti-proliferative activity, CellTiter-Glo, NCI-H358. The data set is classed as cell-based. The following applies: Homo sapiens, NCI-H358, 120 h, 5 days culture. On the procedure: (§9) This experiment is intended to verify that the compounds of the present invention have an inhibitory effect on the proliferation of NCI-H358 human non-small cell lung cancer cells with KRAS G12C mutation, MIA PaCa2 human pancreatic cancer cells with KRAS G12C mutation and wild-type A375 human malignant melanoma cells.
(§10) 40 μl of phosphate buffer was added to the peripheral wells of three 384-well microplates respectively, and 40 μl of cell suspension to be tested was added to the other wells of each plate respectively (plate 1: NCI-H358 cell suspension containing 500 NCI-H358 cells; plate 2: MIAPaCa2 cell suspension containing 300 MIAPaCa2 cells; plate 3: A375 cell suspension containing 300 A375 cells). The three cell plates were then placed in a carbon dioxide incubator and incubated overnight. Echo was used to perform a 3-fold gradient dilution of the compounds to be tested, and each compound was diluted with 10 concentration gradients (diluted from 50 μM to 0.003 μM), 100 nl of which was respectively added to the corresponding wells of the cell plates; after dosing, 40 μL of phosphate buffer was added to each well of rows A and P and columns 1 and 24, and then the cell plates were put back to the carbon dioxide incubator for culturing for 5 days. 20 μl of Promega CellTiter-Glo reagent per well was added to the cell plates, which was shaken at room temperature for 10 minutes in the dark to stabilize the luminescence signal. A PerkinElmer Envision multi-label analyzer was used for reading.
(§11) Data analysis: IC50 results were analyzed by GraphPad Prism 5.0 software […].
(In general: In ATP-based viability assays light output follows the ATP content of the culture.)

For data set [5], the system named is human pancreatic cancer MIA-PaCa2 cell. Description: In vivo drug efficacy test (1): subcutaneous xenograft tumor model. Details: species or system BALB/c nude mice. As to conditions: for TGI: day 20. The method, then: To evaluate the in vivo efficacy of the test compounds in a subcutaneous xenograft tumor model of human pancreatic cancer MIA-PaCa2 cell.
BALB/c nude mice, female, 6-8 weeks old, weighing approximately 18-22 grams. Each mouse was subcutaneously inoculated with 0.2 mL (1×10^7) of MIA-PaCa2 cells (plus matrigel, with the volume ratio being 1:1) on the right back. The administration was performed when the average tumor volume reached about 169 cubic millimeters. The tumor volume was measured twice a week, with the volume measured in cubic millimeters, and calculated by the following formula: V=0.5 a×b^2, where a and b were the long and short diameters of the tumor, respectively. The tumor suppressive effect of the compounds was evaluated by TGI (%). TGI (%) reflects the tumor growth inhibition rate. Calculation of TGI (%): TGI (%)=[(1−(average tumor volume at the end of administration in a treatment group−average tumor volume at the beginning of administration in the treatment group))/(average tumor volume at the end of treatment in the solvent control group−average tumor volume at the beginning of treatment in the solvent control group)]×100%.

Data set [6] relates to wild-type A375 human malignant melanoma cells. Kind of data set: Cell experiment: anti-proliferative activity, CellTiter-Glo, A375. The data set is classed as cell-based. As to conditions: Homo sapiens, A-375, 120 h, 5 days culture. On the procedure: as §9, §10, §11
Data set [7] deals with MIA PaCa2 human pancreatic cancer cells with KRAS G12C mutation. Kind of data set: Cell experiment: anti-proliferative activity, CellTiter-Glo, MIA PaCa2. The data set is classed as cell-based. The following applies: 5 days culture. On the procedure: as §9, §10, §11
Setting [8] is: Homo sapiens, MIA PaCa-2, 120 h.

SMILES strings stand for the structures.

Consider `C=CC(=O)N1CCN(c2nc(N3CC(N(CC)CC)C3)nc3c(=O)n(-c4c(O)cccc4F)c(C(F)(F)F)cc23)CC1` [Example 9], for which the values for the half-life in data set [1], in data set [2] and in data set [3] were above 145 min, above 145 min and 46.3 min, respectively.

As usually defined, the IC50 is the concentration needed to halve the response being measured. High values mean weaker potency, low ones greater potency. Broadly, the TGI is how far tumour growth fell short of that in controls. A higher TGI goes with much slowing of growth. For the molecule `C=CC(=O)N1CCN(c2ncnc3c(=O)n(-c4c(O)cccc4F)c(C(F)(F)F)cc23)CC1` [Example 2], the IC50 is 5360 nM in data set [4], above 50 µM in data set [6] and 6480 nM in data set [7] (setting [8]). For the same molecule, the half-life in data set [1], in data set [2] and in data set [3] was above 145 min in each case. Moreover, the “Tumor volume (day 20)” value is recorded as 457 ± 94 mm^3 in data set [5] (50 mg/kg orally daily) and 307 ± 61 mm^3 in data set [5] (200 mg/kg orally daily). Besides, the TGI in data set [5] (50 mg/kg orally daily) is reported as 35%; in data set [5] (200 mg/kg orally daily), 69%.

As to `C=CC(=O)N1CCN(c2nc(N3CC(N(CC)CC)C3)nc3c(=O)n(-c4c(N)cccc4F)c(C(F)(F)F)cc23)CC1` (single isomer, unassigned) [Example 32], the figures for the IC50 in data set [4], in data set [6] and in data set [7] (setting [8]) were 450 nM, 29.3 µM and 370 nM, respectively. Further, the half-life in data set [1], in data set [2] and in data set [3] was above 145 min each time.

As to `C=CC(=O)N1CCN(c2nc(N3CC(N(CC)CC)C3)nc3c(=O)n(-c4c(C)ccc(N)c4C)c(C(F)(F)F)cc23)CC1` [Example 36], the half-life in data set [1], in data set [2] and in data set [3] was above 145 min in each case. The IC50 in data set [7] is 1110 nM.

Values taken from patent US11453667B2, “Pyridone-pyrimidine derivative acting as KRASG12C mutein inhibitor” (MEDSHINE DISCOVERY INC., priority 2018, dated 2022).
